From US20090311292A1, “PROCESS FOR SYNTHESIS AND INCORPORATION OF NITRIC OXIDE DONORS IN MACROMOLECULAR COMPOSITIONS” (CRISTALIA PRODUTOS QUIMICOS FARMACEUTICOS LTDA., priority 2006, published 2009)

Columns and labels:
[1] = Stability of solid glutathione at 30° C. and 40° C. (UV-visible spectrophotometry after conversion to GSNO); assay type: physicochemical; conditions: for Content (%) 30 days / Content (%) 70 days / Content (%) 105 days / Content (%) 165 days / Content (%) Initial: solid
Protocol: Samples of solid glutathione (GSH) were stored in amber glass vials and maintained at temperatures of 30° C. and 40° C. for evaluation of its stability. GSH content in the samples was determined by UV-visible spectrophotometry from the reaction between GSH and NaNO2 in acid medium (aqueous HCl solution, 2.0 mol L^−1) forming GSNO with absorption bands at 336 nm and 545 nm. GSNO formation (0.05 mol L^−1) was quantified by the intensity of the GSNO absorption band at 545 nm.

[2] = incorporated in PEO-PPO-PEO gel at 37° C.; cited from earlier work
[3] = Stability of GSNO incorporated in PEO-PPO-PEO matrix (Pluronic F-127) under refrigeration; assay type: physicochemical; conditions: for Content (%) 30 days / Content (%) 45 days / Content (%) 110 days / Content (%) Initial: 5-8° C.
[4] = 25° C. in the dark, 0.1 to 61.0 mmol L^−1, follow-up 3.5 hours; cited from earlier work
[5] = Stability of solid GSNO stored at room temperature (absorbance at 336 nm); assay type: physicochemical; conditions: amber glass vials, room temperature (25° C.)
Protocol: Samples of solid GSNO were stored in amber glass vials and maintained at room temperature (25° C.) for evaluation of its stability. GSNO content in the samples at day 0, after 48 hours (day 2) and after 5 days was quantified from the absorbance readings of the aqueous solutions 500 μmol L^−1 at 336 nm. […] According to the results, after 48-hours of storage at room temperature, decomposition of approximately 52% of the initial GSNO content occurs.

[6] = tested on: excisional wound on the back of Wistar rats; assay: Cutaneous wound healing in an animal model (excisional wound); assay type: in vivo
Text: 6.1. Acceleration of cutaneous wound healing in an animal model. […] The formulation of freshly prepared GSNO (100 μmol L^−1) was topically applied to the wounds of the animals. Wistar rats (n=10) were housed in individual cages with free access to water. In the first day (Day 0-d0), an excisional wound (2×2 cm) was made on the back of the animals, under general anesthesia. The wound was covered with either pure hydrogel (control animals) or GSNO-containing hydrogel (treated group). Thereafter, the wounds were closed with a dressing. Daily, up to the fourth day after injury, the dressings were removed, and the wounds were gently cleaned with cold saline. The hydrogel (either containing GSNO or not) was applied and the dressing was replaced. From the fifth day after injury on, the wounds were no longer closed with a dressing.
Wound retraction was measured and reepithelization was evaluated histologically. Wound contours were traced in a transparent paper sheet at the day of injury and after 3, 5, 7, 14 and 21 days. The tracing area was determined using image-analysis software (Image-Pro) and the results were expressed as percentages of the initial area. Blood pressure was measured at the beginning and end of the experiments. After euthanasia, a fragment containing the wound and the adjacent healthy skin was removed. The fragments were fixed in formalin solution, processed and embedded in paraffin. The paraffin-embedded specimens were serially sectioned and 5-μm-thick cuts were obtained and stained using the following techniques: hematoxylin-eosin (for overall observation of the tissue fragment), picro-Mallory (for observation of the connective tissue) and picrosirius red (for observation of the collagen fibers). The blood pressure of the control and treated animals was equivalent at the beginning and end of the experiments.

[7] = 50 μmolL^−1 in hydrogel formulation
[8] = 100 μmolL^−1 in hydrogel formulation
[9] = 200 μmolL^−1 in hydrogel formulation
[10] = twenty-one days after injury, superficial and deep areas

With `N[C@@H](CCC(=O)N[C@@H](CS)C(=O)NCC(=O)O)C(=O)O` [GSH, glutathione] the time remained stable ([1]; solid form, follow up by UV-visible spectrophotometry) was “at least 165 days”, the “Content (%) 30 days” value ([1]; 30° C.) was 100 ± 6% and the “Content (%) 70 days” value ([1]; 30° C.) was 102 ± 6%. The “Content (%) 105 days” value ([1]; 30° C.) was 103 ± 6%, the “Content (%) 165 days” value ([1]; 30° C.) was 100 ± 6% and the “Content (%) Initial” value ([1]; 30° C.) was 100 ± 6%. The “Content (%) 30 days” value ([1]; 40° C.) was 100 ± 6%, the “Content (%) 70 days” value ([1]; 40° C.) was 100 ± 6% and the “Content (%) 105 days” value ([1]; 40° C.) was 99 ± 6%. For the same compound, the “Content (%) 165 days” value ([1]; 40° C.) was 101 ± 6% and the “Content (%) Initial” value ([1]; 40° C.) was 100 ± 6%.
In the case of `N[C@@H](CCC(=O)N[C@@H](CSN=O)C(=O)NCC(=O)O)C(=O)O` [GSNO, S-nitrosoglutathione], the “initial rate of thermal decomposition” value [2] is given as 2.3 μmolL^−1 min^−1, the “Content (%) 30 days” value [3, 7] is given as 96 ± 6% and the “Content (%) 45 days” value [3, 7] is given as 89 ± 6%. The “Content (%) 110 days” value [3, 7] was 85 ± 6%, the “Content (%) Initial” value [3, 7] was 100 ± 6% and the “Content (%) 30 days” value [3, 8] was 103 ± 6%. The “Content (%) 45 days” value [3, 8] was 100 ± 6%, the “Content (%) 110 days” value [3, 8] was 80 ± 6% and the “Content (%) Initial” value [3, 8] was 100 ± 6%. For the same compound, the “Content (%) 30 days” value [3, 9] was 90 ± 6%, the “Content (%) 45 days” value [3, 9] was 90 ± 6% and the “Content (%) 110 days” value [3, 9] was 85 ± 6%. The “Content (%) Initial” value [3, 9] was 100 ± 6%, the “decrease in relation to the initial GSNO content” value ([3]; in PEO-PPO-PEO matrix, 50, 100 and 200 μmol L^−1, 110 days at 5-8° C.) was “about 20%” and the “thermal decomposition of aqueous solution” value [4] was “undergo spontaneous thermal decomposition”. For the same compound, the “Content (%) After 2 days” value [5] was 48 ± 6%, the “Content (%) After 5 days” value [5] was 36 ± 6% and the “Content (%) Initial (day 0)” value [5] was 100 ± 6%. For the same compound, the “area of wound reepithelization larger compared to the control group” value ([6]; 7 days after injury) was greater than 77%, the “wound retraction versus control group” value ([6]; after 3, 5 and 7 days of injury (p=0.01; p=0.05; p=0.007), GSNO-containing hydrogel 100 μmol L^−1) was “greater” and the “new epidermis formation compared to the control animals” value ([6]; after 14 and 21 days of injury) was “more accentuated”. For the same compound, the “wound contraction in relation to the controls” value ([6]; after 14 and 21 days of injury) was “greater”, the “blood pressure of control and treated animals” value ([6]; beginning and end of the experiments, GSNO 100 μmol L^−1 in Pluronic F-127 hydrogel, topical) was “equivalent” and the “wound area in control animals larger than in GSNO-treated animals” value ([6]; fourteen days after injury) was 22%. For the same compound, the “number of microvessels in relation to the control group” value ([6]; twenty-one days after injury) was “tendency of increase”, the “total number of mast cells in deep areas of the granulation tissue compared to the control group” value ([6]; twenty-one days after injury) was “+384%” and the “wound area in control animals larger than in GSNO-treated animals” value ([6]; twenty-one days after injury) was 20%. The “inflammatory cells in granulation tissue of control group in comparison to GSNO-treated group” value [6, 10] was “larger number” and the “number of fibroblasts in granulation tissue compared to the control group” value [6, 10] was “increase”.
In the case of `CC(=O)N[C@@H](CSN=O)C(=O)O` [SNAC, S-nitroso-N-acetylcysteine], the “initial rate of thermal decomposition” value [2] is listed as 7.2 μmolL^−1 min^−1 and the “thermal decomposition of aqueous solution” value [4] is listed as “undergo spontaneous thermal decomposition”.
For `N[C@@H](CSN=O)C(=O)O` [S-nitrosocysteine, reference compound], the “thermal decomposition of aqueous solution” value [4] is given as “undergo spontaneous thermal decomposition”.
